From ChEMBL document CHEMBL2331518, “Rapid microwave-enhanced synthesis of C5-alkynyl pyranonucleosides as novel cytotoxic antitumor agents” (Bioorg Med Chem Lett, 2013)
The source made the active and inactive calls. The calls are words filed in the database; no cut-off is given here.

Experiments:
[1] = tested on: Human immunodeficiency virus 2; assay: Antiviral activity against HIV2 ROD infected in human CEM cells assessed as reduction of virus-induced cytopathicity after 4 to 5 days; format: functional, organism-based; settings: ISOLATE ROD, CCRF-CEM
[2] = tested on: Human immunodeficiency virus 1; assay: Antiviral activity against HIV1 3B infected in human CEM cells assessed as reduction of virus-induced cytopathicity after 4 to 5 days; format: functional, organism-based; settings: CCRF-CEM
Punta Toro virus = assay: Antiviral activity against Punta Toro virus by cell based assay; format: functional, organism-based
[3] = tested on: Mammalian orthoreovirus 1; assay: Antiviral activity against Reovirus-1 by cell based assay; format: functional, organism-based
Influenza B virus = assay: Antiviral activity against Influenza B virus by cell based assay; format: functional, organism-based
Influenza A virus [4] = assay: Antiviral activity against Influenza A virus H3N2 by cell based assay; format: functional, organism-based
Sindbis virus = assay: Antiviral activity against Sindbis virus by cell based assay; format: functional, organism-based
Influenza A virus [5] = assay: Antiviral activity against Influenza A virus H1N1 by cell based assay; format: functional, organism-based
Human respirovirus 3 = assay: Antiviral activity against Parainfluenza-3 virus by cell based assay; format: functional, organism-based
Coxsackievirus B4 = assay: Antiviral activity against Coxsackie virus B4 by cell based assay; format: functional, organism-based
[6] = tested on: Vesicular stomatitis virus; assay: Antiviral activity against Vesicular stomatitis virus by cell based assay; format: functional, organism-based
[7] = tested on: Respiratory syncytial virus; assay: Antiviral activity against Respiratory syncytial virus Long by cell based assay; format: functional, organism-based
Vaccinia virus = assay: Antiviral activity against Vaccinia virus Lederle by cell based assay; format: functional, organism-based; settings: Orthopoxvirus vaccinia
Human alphaherpesvirus 2 [8] = assay: Antiviral activity against HSV-2 G by cell based assay; format: functional, organism-based; settings: strain G
Human alphaherpesvirus 1 [9] = assay: Antiviral activity against kinase-deficient acyclovir-resistant HSV-1 KOS by cell based assay; format: functional, organism-based
Human alphaherpesvirus 2 [10] = assay: Antiviral activity against HSV-2 Lyons by cell based assay; format: functional, organism-based
Human alphaherpesvirus 1 [11] = assay: Antiviral activity against HSV-1 KOS by cell based assay; format: functional, organism-based
HeLa = assay: Cytotoxicity against human HeLa cells after 72 hrs; format: functional, cell-based
L1210 = assay: Cytotoxicity against mouse L1210 cells after 48 hrs; format: functional, cell-based; settings: L1210, 48 h
CCRF-CEM = assay: Cytotoxicity against human CEM cells after 72 hrs; format: functional, cell-based

Row | Structure (SMILES) | Activity [1] | Activity [2] | Activity (Punta Toro virus) | Activity [3] | Activity (Influenza B virus) | Activity (Influenza A virus [4]) | Activity (Sindbis virus) | Activity (Influenza A virus [5]) | Activity (Human respirovirus 3) | Activity (Coxsackievirus B4) | Activity [6] | Activity [7] | Activity (Vaccinia virus) | Activity (Human alphaherpesvirus 2 [8]) | Activity (Human alphaherpesvirus 1 [9]) | Activity (Human alphaherpesvirus 2 [10]) | Activity (Human alphaherpesvirus 1 [11]) | IC50 (HeLa) [µM] | IC50 (L1210) [µM] | IC50 (CCRF-CEM) [µM]
1 | CCCc1cc2cn([C@@H]3O[C@H](CO)[C@@H](O)[C@H](O)[C@H]3O)c(=O)nc2o1 | inactive | inactive | inactive | inactive | inactive | inactive | inactive | inactive | inactive | inactive | inactive | inactive | inactive | inactive | inactive | inactive | inactive | 125 | 132 | 173
2 | CC(C)(C)c1ccc(C#Cc2cn([C@@H]3O[C@H](CO)[C@@H](O)[C@H](O)[C@H]3O)c(=O)nc2O)cc1 |  |  |  |  |  |  |  |  |  |  |  |  |  |  |  |  |  | 37 | 185 | > 250
3 | CCCCCC#Cc1cn([C@@H]2O[C@H](CO)[C@@H](O)[C@H](O)[C@H]2O)c(=O)[nH]c1=O |  |  |  |  |  |  |  |  |  |  |  |  |  |  |  |  |  | 29 | 22 | 26
4 | CCCCCc1ccc(C#Cc2cn([C@@H]3O[C@H](CO)[C@@H](O)[C@H](O)[C@H]3O)c(=O)nc2N)cc1 |  |  |  |  |  |  |  |  |  |  |  |  |  |  |  |  |  | 43 | 132 | 115
5 | CC(C)(C)c1ccc(C#Cc2cn([C@@H]3O[C@H](CO)[C@@H](O)[C@H](O)[C@H]3O)c(=O)nc2N)cc1 |  |  |  |  |  |  |  |  |  |  |  |  |  |  |  |  |  | 140 | > 250 | > 250
6 | O=c1[nH]c(=O)n([C@@H]2O[C@H](CO)[C@@H](O)[C@H](O)[C@H]2O)cc1C#Cc1ccccn1 | inactive | inactive | inactive | inactive | inactive | inactive | inactive | inactive | inactive | inactive | inactive | inactive | inactive | inactive | inactive | inactive | inactive | 66 | 71 | 79
7 | CCCC#Cc1cn([C@@H]2O[C@H](CO)[C@@H](O)[C@H](O)[C@H]2O)c(=O)nc1N |  |  |  |  |  |  |  |  |  |  |  |  |  |  |  |  |  | 191 | ≥ 250 | > 250
8 | CC(=O)OC[C@H]1O[C@@H](n2cc(C#Cc3cccnc3)c(=O)[nH]c2=O)[C@H](OC(C)=O)[C@@H](OC(C)=O)[C@@H]1OC(C)=O |  |  |  |  |  |  |  |  |  |  |  |  |  |  |  |  |  | > 250 | > 250 | 182
9 | CC(=O)OC[C@H]1O[C@@H](n2cc(C#Cc3ccccn3)c(=O)[nH]c2=O)[C@H](OC(C)=O)[C@@H](OC(C)=O)[C@@H]1OC(C)=O |  |  |  |  |  |  |  |  |  |  |  |  |  |  |  |  |  | 90 | 115 | 139
10 | O=c1nc(O)c(C#Cc2ccccc2)cn1[C@@H]1O[C@H](CO)[C@@H](O)[C@H](O)[C@H]1O | inactive | inactive | inactive | inactive | inactive | inactive | inactive | inactive | inactive | inactive | inactive | inactive | inactive | inactive | inactive | inactive | inactive | 5.4 | 6.2 | 5.2
11 | O=c1[nH]c(=O)n([C@@H]2O[C@H](CO)[C@@H](O)[C@H](O)[C@H]2O)cc1CCc1ccccc1 |  |  |  |  |  |  |  |  |  |  |  |  |  |  |  |  |  | 43 | 300 | 244
12 | C#Cc1cn([C@@H]2O[C@H](CO)[C@@H](O)[C@H](O)[C@H]2O)c(=O)nc1N |  |  |  |  |  |  |  |  |  |  |  |  |  |  |  |  |  | ≥ 250 | ≥ 250 | > 250
13 | CC(=O)OC[C@H]1O[C@@H](n2cc(C#Cc3ccc[n+](C)c3)c(=O)[nH]c2=O)[C@H](OC(C)=O)[C@@H](OC(C)=O)[C@@H]1OC(C)=O |  |  |  |  |  |  |  |  |  |  |  |  |  |  |  |  |  | > 250 | > 250 | > 250
14 | C[n+]1cccc(C#Cc2cn([C@@H]3O[C@H](CO)[C@@H](O)[C@H](O)[C@H]3O)c(=O)[nH]c2=O)c1 | inactive | inactive | inactive | inactive | inactive | inactive | inactive | inactive | inactive | inactive | inactive | inactive | inactive | inactive | inactive | inactive | inactive | > 250 | > 250 | > 250
15 | O=c1[nH]c(=O)n([C@@H]2O[C@H](CO)[C@@H](O)[C@H](O)[C@H]2O)cc1C#Cc1cccnc1 | inactive | inactive | inactive | inactive | inactive | inactive | inactive | inactive | inactive | inactive | inactive | inactive | inactive | inactive | inactive | inactive | inactive | > 250 | > 250 | > 250
16 | CCCCCc1ccc(C#Cc2cn([C@@H]3O[C@H](CO)[C@@H](O)[C@H](O)[C@H]3O)c(=O)nc2O)cc1 |  |  |  |  |  |  |  |  |  |  |  |  |  |  |  |  |  | 31 | 70 | 81
17 | C#Cc1cn([C@@H]2O[C@H](CO)[C@@H](O)[C@H](O)[C@H]2O)c(=O)[nH]c1=O |  |  |  |  |  |  |  |  |  |  |  |  |  |  |  |  |  | 231 | 141 | > 250
18 | Nc1nc(=O)n([C@@H]2O[C@H](CO)[C@@H](O)[C@H](O)[C@H]2O)cc1C#Cc1ccccc1 |  |  |  |  |  |  |  |  |  |  |  |  |  |  |  |  |  | 201 | ≥ 250 | > 250
19 | CC(=O)OC[C@H]1O[C@@H](n2cc(C#Cc3cccc[n+]3C)c(=O)[nH]c2=O)[C@H](OC(C)=O)[C@@H](OC(C)=O)[C@@H]1OC(C)=O |  |  |  |  |  |  |  |  |  |  |  |  |  |  |  |  |  | 232 | 203 | > 250
20 | CCCC#Cc1cn([C@@H]2O[C@H](CO)[C@@H](O)[C@H](O)[C@H]2O)c(=O)[nH]c1=O |  |  |  |  |  |  |  |  |  |  |  |  |  |  |  |  |  | 95 | 115 | 123
21 | C[n+]1ccccc1C#Cc1cn([C@@H]2O[C@H](CO)[C@@H](O)[C@H](O)[C@H]2O)c(=O)[nH]c1=O | inactive | inactive | inactive | inactive | inactive | inactive | inactive | inactive | inactive | inactive | inactive | inactive | inactive | inactive | inactive | inactive | inactive | 244 | 152 | > 250
22 | CCCCCc1cc2cn([C@@H]3O[C@H](CO)[C@@H](O)[C@H](O)[C@H]3O)c(=O)nc2o1 | inactive | inactive | inactive | inactive | inactive | inactive | inactive | inactive | inactive | inactive | inactive | inactive | inactive | inactive | inactive | inactive | inactive | > 250 | ≥ 250 | > 250
23 | CCCCCC#Cc1cn([C@@H]2O[C@H](CO)[C@@H](O)[C@H](O)[C@H]2O)c(=O)nc1N |  |  |  |  |  |  |  |  |  |  |  |  |  |  |  |  |  | ≥ 250 | ≥ 250 | > 250
